Data published in US20190187148A1, “BIOMOLECULAR INTERACTION DETECTION DEVICES AND METHODS” (The Regents of the University of California, priority 2013, published 2019).
Where two headings read alike, the source gives them in different places.

Tested on: streptavidin
Procedure: The fluid channel was at first flown with Tris buffer from syringe A into the device 400 received at the corresponding inlet 411.
The acquired signals were measured from the drain current of the exemplary FET 432. […] This was similarly repeated with 1 mM streptavidin protein in the Tris buffer from syringe B. For example, 20 mM Tris buffer (pH=7.4) was prefilled in the channel and then 1 mM avidin was flowed in the 20 mM Tris buffer in the channel.

## O=C(O)CCCC[C@@H]1SC[C@@H]2NC(=O)N[C@@H]21 [biotin]
pre-mixed 0.2 mM streptavidin with 4 mM biotin (1:20) in Tris buffer
  binding indicated by FET signal waveform: some biotin molecules have bonded with streptavidin
pre-mixed 1 mM streptavidin with 4 mM biotin in Tris buffer
  binding indicated by FET signal waveform: streptavidin and biotin bind together
